Experimental data as given in patent US9839701B2, “Aromatic amino acid derivative and positron emission topography (PET) probe using the same” (OSAKA UNIVERSITY, priority 2013, dated 2017).

Experiments:
human LAT2 = molecular target: T1, human LAT2 (Homo sapiens, UniProt Q9UHI5); assay: Inhibition of amino acid uptake in human LAT2 stably expressing cell line; format: cell-based; settings: human LAT2 stably expressing HEK293 cell line; for inhibition at 30 µM: HEK293, compound at 30 μM, read-out: Percentage of inhibition of LAT2-mediated amino acid uptake
T1 construct: expressed in transfected cells
T1 sequence (Q9UHI5 1-535): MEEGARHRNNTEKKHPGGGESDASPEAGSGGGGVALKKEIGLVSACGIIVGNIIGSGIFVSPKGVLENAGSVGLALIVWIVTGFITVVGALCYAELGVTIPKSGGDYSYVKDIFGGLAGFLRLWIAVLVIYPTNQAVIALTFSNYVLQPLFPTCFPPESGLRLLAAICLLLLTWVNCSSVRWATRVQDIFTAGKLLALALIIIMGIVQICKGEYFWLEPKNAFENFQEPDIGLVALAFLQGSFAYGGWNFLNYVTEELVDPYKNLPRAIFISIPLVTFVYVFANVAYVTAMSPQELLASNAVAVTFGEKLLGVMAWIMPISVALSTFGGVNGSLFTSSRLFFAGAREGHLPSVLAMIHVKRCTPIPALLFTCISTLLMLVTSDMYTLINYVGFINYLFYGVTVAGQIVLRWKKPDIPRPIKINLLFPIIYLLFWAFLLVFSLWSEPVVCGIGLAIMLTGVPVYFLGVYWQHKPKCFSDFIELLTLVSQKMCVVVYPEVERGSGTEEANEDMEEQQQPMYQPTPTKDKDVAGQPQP
T1 sequence (P08195 1-529 partner): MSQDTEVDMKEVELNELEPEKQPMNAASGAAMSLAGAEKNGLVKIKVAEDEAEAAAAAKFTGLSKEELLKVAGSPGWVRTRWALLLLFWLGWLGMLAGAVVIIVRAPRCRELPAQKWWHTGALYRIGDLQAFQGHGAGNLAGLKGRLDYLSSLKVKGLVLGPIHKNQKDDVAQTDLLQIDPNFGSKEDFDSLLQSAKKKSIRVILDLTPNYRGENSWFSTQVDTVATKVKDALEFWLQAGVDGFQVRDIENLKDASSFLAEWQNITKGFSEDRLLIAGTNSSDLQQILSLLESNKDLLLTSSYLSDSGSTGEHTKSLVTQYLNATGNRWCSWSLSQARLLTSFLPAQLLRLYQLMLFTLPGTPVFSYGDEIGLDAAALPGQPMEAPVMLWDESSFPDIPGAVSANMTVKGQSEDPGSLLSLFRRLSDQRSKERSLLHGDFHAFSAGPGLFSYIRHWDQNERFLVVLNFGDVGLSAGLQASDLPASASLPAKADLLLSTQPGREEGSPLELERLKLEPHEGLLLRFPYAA
Description: (§1) A human LAT1 expression vector or a human LAT2 expression vector was transfected using Lipofectamine (registered trademark) 2000 (Invitrogen) into a human embryonic kidney cell line HEK293. G418-resistant HEK293 clones were selected, and among them, a clone showing human LAT1-specific amino acid uptake and a clone showing human LAT2-specific amino acid uptake were selected and established as a human LAT1 stably expressing cell line and a human LAT2 stably expressing cell line, respectively (Khunweeraphong et al. J Pharmacol Sci. 2012 Aug. 18; 119(4): 368-80. Epub 2012 Jul. 31).
(§2) The human LAT1 stably expressing cell line and the human LAT2 stably expressing cell line were seeded at 1.2×10^5 cells/well on separate collagen-coated 24-well plates, and after 48 hours, the cells were washed 3 times with an uptake buffer (Na^2+-free Hank's balanced salt solution (HBSS), pH 7.4) prewarmed at 37° C. Compound 10a, compound 10b or a positive control FAMT (fluoro-α-methyltyrosine) was added at 100 μM, and incubation was performed at 37° C. for 3 minutes. Cells not treated with any of these compounds were used as a negative control. After the incubation, 1 μM of [^14C]L-leucine or [^14C]alanine was added to the wells, [^14C]L-leucine or [^14C]alanine uptake was allowed to proceed for 1 minute, and the cells were washed 3 times with an ice-cold uptake buffer. Subsequently, 500 μL of 0.1 M NaOH was added to each well for cell lysis, 20 μL of the lysate was used for the measurement of the protein concentration, and the remaining lysate was used for the measurement of the intracellular radioactivity. The measured radioactivity was normalized to the protein concentration, and on the assumption that the amino acid uptake activity in the negative control was 100%, the percentage (%) of inhibition of amino acid uptake in the presence of each compound was calculated.
(§3) Using the same cell lines as described in Example 2, the compound of Example 1 was examined for the inhibitory effect on leucine or alanine uptake in the human LAT1 stably expressing cell line and the human LAT2 stably expressing cell line in the same manner as in Example 2. FAMT was used as the positive control. The compound of Example 1 or FAMT was added at 100 μM. Cells not treated with either of these compounds were used as a negative control. On the assumption that the amino acid uptake activity in the negative control (control) was 100%, the percentage (%) of inhibition of amino acid uptake in the presence of FAMT or the compound of Example 1 was calculated. In addition, the cancer cell selectivity was calculated as the ratio of the amino acid uptake activity in the human LAT2 stably expressing cell line relative to that in the human LAT1 stably expressing cell line.
(§4) In another experiment, the cells were treated with the compound of Example 1 at eight different concentrations (0.1, 1, 3, 10, 30, 100, 300 and 1000 μM), and the concentration causing 50% inhibition of amino acid uptake was calculated as the IC50 value.
(§5) A human LAT1 stably expressing cell line and a human LAT2 stably expressing cell line, each of which was the same as described in Example 2, were seeded at 1.2×10^5 cells/well, and after 48 hours, the cells were washed 3 times with an uptake buffer (Na^2+-free Hank's balanced salt solution (HBSS), pH 7.4) prewarmed at 37° C. The test compounds, L-tyrosine or the positive control FAMT (fluoro-α-methyltyrosine) was added at 30 μM, and incubation was performed at 37° C. for 3 minutes. Cells not treated with any of these compounds were used as a negative control. After the incubation, 1 μM of [^14C]L-leucine or [^14C]alanine was added to the wells, [^14C]L-leucine or [^14C]alanine uptake was allowed to proceed for 1 minute, and the cells were washed 3 times with an ice-cold uptake buffer. […]

human LAT1 = molecular target: T2, human LAT1 (Homo sapiens, UniProt Q01650); assay: Inhibition of amino acid uptake in human LAT1 stably expressing cell line; format: cell-based
T2 construct: expressed in transfected cells
T2 sequence (Q01650 whole entry, one chain of several): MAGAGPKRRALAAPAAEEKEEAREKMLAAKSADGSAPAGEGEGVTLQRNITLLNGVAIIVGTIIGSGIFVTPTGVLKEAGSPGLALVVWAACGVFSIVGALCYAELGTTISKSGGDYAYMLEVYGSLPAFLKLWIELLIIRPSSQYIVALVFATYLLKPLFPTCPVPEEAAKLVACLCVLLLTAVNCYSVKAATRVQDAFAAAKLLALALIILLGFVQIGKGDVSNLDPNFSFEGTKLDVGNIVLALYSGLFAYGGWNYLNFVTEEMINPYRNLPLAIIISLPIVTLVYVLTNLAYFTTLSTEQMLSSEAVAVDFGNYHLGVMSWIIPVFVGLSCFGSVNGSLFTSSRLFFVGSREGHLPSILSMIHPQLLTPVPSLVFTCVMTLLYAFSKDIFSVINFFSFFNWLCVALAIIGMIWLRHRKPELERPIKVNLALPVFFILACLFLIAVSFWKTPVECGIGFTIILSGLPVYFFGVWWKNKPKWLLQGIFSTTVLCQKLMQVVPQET
Description: as §1, §2, §3, §4, §5

[1] = compound at 30 μM, human LAT1 stably expressing HEK293 cell line, 30 µM

| Molecule | Cancer cell selectivity (amino acid uptake activity in human LAT2 line / in human LAT1 line) (human LAT1; compound at 30 μM) | Percentage of inhibition of LAT1-mediated amino acid uptake (human LAT1; [1]) [%] | Percentage of inhibition of LAT2-mediated amino acid uptake (human LAT2; compound at 30 μM, 30 µM) [%] | also measured |
| --- | --- | --- | --- | --- |
| N[C@@H](Cc1ccc(O)cc1)C(=O)O [L-Tyr, L-tyrosine, reference compound] | 1.16 | – | – | inhibition at 30 µM (human LAT2): 33.1%; inhibition at 30 µM (human LAT1; HEK293, compound at 30 μM, human LAT1 stably expressing HEK293 cell line, read-out: Percentage of inhibition of LAT1-mediated amino acid uptake): 42.3% |
| NC(Cc1cc(OCCCCF)ccc1I)C(=O)O (single isomer, unassigned) [compound 25a, 2-amino-3-(5-(4-fluorobutoxy)-2-iodophenyl)propanoic acid] | 1.49 | 37.7 | – | inhibition at 30 µM (human LAT2): 7.3% |
| NC(Cc1cc(OCCCCF)ccc1I)C(=O)O (single isomer, unassigned) [compound 25b, 2-amino-3-(5-(4-fluorobutoxy)-2-iodophenyl)propanoic acid] | 15.13 | 94.1 | 11.3 | – |
| NC(Cc1cc(OCCOCCF)ccc1I)C(=O)O (single isomer, unassigned) [compound 27 (R), 2-amino-3-(5-(2-(2-fluoroethoxy)ethoxy)-2-iodophenyl)propanoic acid] | 1.39 | 35.4 | – | inhibition at 30 µM (human LAT2): 10.6% |
| NC(Cc1cc(OCCF)ccc1C1CC1)C(=O)O (single isomer, unassigned) [compound 23a, 2-amino-3-(2-cyclopropyl-5-(2-fluoroethoxy)phenyl)propanoic acid] | 1.41 | 37.5 | 11.8 | – |
| NC(Cc1cc(OCCOCCF)ccc1I)C(=O)O (single isomer, unassigned) [compound 27 (S), 2-amino-3-(5-(2-(2-fluoroethoxy)ethoxy)-2-iodophenyl)propanoic acid] | 9.04 | 89.5 | 6.5 | – |
| NC(Cc1cc(OCCF)ccc1I)C(=O)O (single isomer, unassigned) [compound 10b, 2-amino-3-(5-(2-fluoroethoxy)-2-iodophenyl)propanoic acid] | 8.59 | 91.2 | 24.5 | Cancer cell selectivity (amino acid uptake activity in human LAT2 line / in human LAT1 line) (human LAT1; compound at 100 μM): higher than that in the human LAT2 stably expressing cell line |
| NC(Cc1cc(OCCF)ccc1I)C(=O)O (single isomer, unassigned) [compound 10a, 2-amino-3-(5-(2-fluoroethoxy)-2-iodophenyl)propanoic acid] | 1.44 | 33.8 | 4.7 | Cancer cell selectivity (amino acid uptake activity in human LAT2 line / in human LAT1 line) (human LAT1; compound at 100 μM): higher than that in the human LAT2 stably expressing cell line |
| NC(Cc1cc(OCCF)ccc1Br)C(=O)O (single isomer, unassigned) [compound 24b, 2-amino-3-(2-bromo-5-(2-fluoroethoxy)phenyl)propanoic acid] | 4.42 | 85.1 | 34.3 | – |
| fluoro-α-methyltyrosine [FAMT, reference compound] | 1.5 | – | – | Percentage of inhibition of LAT2-mediated amino acid uptake (human LAT2; compound at 30 μM): 16.3%; Percentage of inhibition of LAT2-mediated amino acid uptake (human LAT2; compound at 100 μM, 1 μM [14C]L-leucine or [14C]alanine, 1 min uptake): 28.3%; Percentage of inhibition of LAT1-mediated amino acid uptake (human LAT1; compound at 30 μM, human LAT1 stably expressing HEK293 cell line): 44.2%; Percentage of inhibition of LAT1-mediated amino acid uptake (human LAT1; compound at 100 μM, human LAT1 stably expressing HEK293 cell line, 1 μM [14C]L-leucine or [14C]alanine, 1 min uptake): 52.4% |
| NC(Cc1cc(OCCF)ccc1C1CC1)C(=O)O (single isomer, unassigned) [compound 23b, 2-amino-3-(2-cyclopropyl-5-(2-fluoroethoxy)phenyl)propanoic acid] | 11.2 | 94.5 | 39.9 | – |
| NC(Cc1cc(OCCF)ccc1Br)C(=O)O (single isomer, unassigned) [compound 24a, 2-amino-3-(2-bromo-5-(2-fluoroethoxy)phenyl)propanoic acid] | 1.12 | 11.6 | 0.8 | – |
